Results on 2 molecules are retold here after patent US20220031825A1, “IMM[…] AND VACCINE COMPOSITION INCLUDING STING AGONIST” (priority 2018, published 2022).

Test [1] concerns spleen and lung cells. In words: Antigen-specific multifunctional T cells after ESAT-6 stimulation (flow cytometry). The settings on record: mouse, in vivo. On the technique in general: Flow cytometry measures light scatter and fluorescence of single cells or particles in a stream.
For test [2], the system named is spleen and lung cells. In words: Type and number of memory T cells in spleen and lung (flow cytometry). Format: in vivo, mouse. The following applies: both spleen and lung cells of immunized mice; compared with MPL as adjuvant; FIG. 1D. From the text: In general, when infected with Mycobacterium tuberculosis, Mycobacterium tuberculosis antigen-specific T cells replicate and differentiate to become effector T cells. When the immune response disappears, most of these effector T cells die, and some form long-lasting memory T cells. It is known that the memory T cells thus formed play a critical role in the formation of a rapid acquired defense immunity and maintenance of the memorization of T cells. […] For the experiment, the spleen and lung cells of the mouse obtained in the same manner as in Example 1.2 were washed twice with PBS and then centrifuged. The centrifuged cells were treated with anti-CD3-BV421 (BD Bioscience), anti-CD4-PerCP-Cy5.5 (BD Bioscience), anti-CD8-APC-Cy7 (BD Bioscience), anti-CD44-PE (Ebioscience), anti-CD62L-FITC (Ebioscience), anti-CD127-APC (Ebioscience), etc. Then, they were reacted at 4° C. for 30 minutes. After the reaction was completed, cells were washed several times with PBS to remove unbound antibody, and then effector T cells (Teff; CD3^+CD4^+CD62L^−CD44+CD127^−), effector/memory T cells (Tem; CD3^+CD4^+CD62L^−CD44^+CD127^+), central memory T cells (Tcm; CD3^+CD4^+CD62L^+CD44^+CD127^+), and naive T cells (Naive; CD3^+CD4^+CD62L^+CD44^−CD127^+) were analyzed by using flow cytometer (FACS verse, BD).

As for monophosphoryl lipid A [MPL], the “T cells secreting all three types of cytokines IFN-γ, TNF-α and IL-2” value in test [1] was “increased”.
As to `Nc1nc2c(ncn2[C@@H]2O[C@@H]3COP(=O)(O)O[C@H]4[C@@H](O)[C@H](n5cnc6c(=O)[nH]c(N)nc65)O[C@@H]4COP(=O)(O)O[C@H]3[C@H]2O)c(=O)[nH]1` [c-di-GMP, cyclic diguanylate], in test [2], the “effector/memory T of CD4+/CD8+” value is listed as “significant increase”. In addition, the “T cells secreting all three types of cytokines IFN-γ, TNF-α and IL-2” value in test [1] is given as “increased”.
